The molecules below were run against T1, human PDE4B1 (Homo sapiens, UniProt Q07343) (assay: cAMP HTRF assay to determine the activity of hPDE4B1). Settings: inhibition of PDE4B at a test concentration of 1 μM.
T1 construct: host or cells: Sf9 cells
Format: biochemical
Summary of the method: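 Human recombinant PDE4B1 from Sf9 cells (4.8 U) in Tris-HCl, MgCl2, DTT, Tween 20 buffer at pH 7.8 with 40 nM cAMP (final), 30 min at room temperature. Reaction stopped with 1 mM IBMX; remaining cAMP detected by HTRF (665/620 nm ratio). IC50 from eight-concentration curves.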

T1 sequence (Q07343 whole entry): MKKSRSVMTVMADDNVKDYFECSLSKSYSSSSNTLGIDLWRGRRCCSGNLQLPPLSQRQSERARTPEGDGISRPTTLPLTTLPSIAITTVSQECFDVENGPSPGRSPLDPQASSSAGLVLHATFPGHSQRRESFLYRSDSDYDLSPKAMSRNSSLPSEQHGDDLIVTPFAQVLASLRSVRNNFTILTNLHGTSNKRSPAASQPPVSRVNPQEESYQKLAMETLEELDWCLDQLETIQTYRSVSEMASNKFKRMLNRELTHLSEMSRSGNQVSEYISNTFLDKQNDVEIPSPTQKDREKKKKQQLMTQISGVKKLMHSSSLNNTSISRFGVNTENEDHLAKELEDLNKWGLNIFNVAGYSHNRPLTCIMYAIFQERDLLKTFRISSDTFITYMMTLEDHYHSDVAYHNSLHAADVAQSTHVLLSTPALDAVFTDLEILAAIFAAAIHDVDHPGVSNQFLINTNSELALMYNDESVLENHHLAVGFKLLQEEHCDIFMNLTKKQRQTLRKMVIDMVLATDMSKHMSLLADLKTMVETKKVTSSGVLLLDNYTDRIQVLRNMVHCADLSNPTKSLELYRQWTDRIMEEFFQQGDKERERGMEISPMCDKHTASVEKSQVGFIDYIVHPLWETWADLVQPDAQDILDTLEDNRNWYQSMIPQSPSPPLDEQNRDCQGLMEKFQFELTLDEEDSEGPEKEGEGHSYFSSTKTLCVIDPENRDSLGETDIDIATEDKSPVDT

| Compound | inhibition at 1 µM [%] |
| --- | --- |
| CN(C(=O)c1ccc2c([S+](C)[O-])cn(-c3ncc(-c4ccccc4F)cn3)c2c1)C1(CO)CC1 (centres unmarked) [Example 170, 1-(5-(2-Fluorophenyl)pyrimidin-2-yl)-N-(1-(hydroxymethyl)cyclopropyl)-N-methyl-3-(methylsulfinyl)-1H-indole-6-carboxamide] | 54 |
| CN(CC(C)(C)O)C(=O)c1ccc2c([S+](C)[O-])cn(-c3ncc(-c4ccccc4F)cn3)c2c1 (centres unmarked) [Example 171, 1-(5-(2-Fluorophenyl)pyrimidin-2-yl)-N-(2-hydroxy-2-methylpropyl)-N-methyl-3-(methylsulfinyl)-1H-indole-6-carboxamide] | 38 |
| CN(CC(=O)O)C(=O)c1ccc2c([S+](C)[O-])cn(-c3ncc(-c4ccccc4F)cn3)c2c1 (centres unmarked) [Example 173, 2-(1-(5-(2-Fluorophenyl)pyrimidin-2-yl)-N-methyl-3-(methylsulfinyl)-1H-indole-6-carboxamido)acetic acid] | 70 |
| CN(CC(N)=O)C(=O)c1ccc2c([S+](C)[O-])cn(-c3ncc(-c4ccccc4F)cn3)c2c1 (centres unmarked) [Example 174, N-(2-Amino-2-oxoethyl)-1-(5-(2-fluorophenyl)pyrimidin-2-yl)-N-methyl-3-(methylsulfinyl)-1H-indole-6-carboxamide] | 105 |
| C[S+]([O-])c1cn(-c2ncc(-c3ccccc3F)cn2)c2cc(C(=O)N3CC4CC3CN4)ccc12 (centres unmarked) [Example 175, 2,5-Diazabicyclo[2.2.1]heptan-2-yl(1-(5-(2-fluorophenyl)pyrimidin-2-yl)-3-(methylsulfinyl)-1H-indol-6-yl)methanone] | 114 |
| COC(=O)CN(C)C(=O)c1ccc2c([S+](C)[O-])cn(-c3ncc(-c4ccccc4F)cn3)c2c1 (centres unmarked) [Example 177, Methyl 2-(1-(5-(2-fluorophenyl)pyrimidin-2-yl)-N-methyl-3-(methylsulfinyl)-1H-indole-6-carboxamido)acetate] | 39 |
| C[C@H]1COCCN1C(=O)c1ccc2c([S+](C)[O-])cn(-c3ncc(-c4ccccc4F)cn3)c2c1 (stereo partly drawn) [Example 178, (1-(5-(2-Fluorophenyl)pyrimidin-2-yl)-3-(methylsulfinyl)-1H-indol-6-yl)((S)-3-methylmorpholino)methanone] | 88 |
| C[C@@H]1COCCN1C(=O)c1ccc2c([S+](C)[O-])cn(-c3ncc(-c4ccccc4F)cn3)c2c1 (stereo partly drawn) [Example 179, (1-(5-(2-Fluorophenyl)pyrimidin-2-yl)-3-(methylsulfinyl)-1H-indol-6-yl)((R)-3-methylmorpholino)methanone] | 90 |
| Cc1cccc(-c2cnc(-n3cc([S+](C)[O-])c4ccc(C(=O)N5CCOCC5)cc43)nc2)n1 (centres unmarked) [Example 180, (1-(5-(6-Methylpyridin-2-yl)pyrimidin-2-yl)-3-(methylsulfinyl)-1H-indol-6-yl)(morpholino)methanone] | 99 |
| C[S+]([O-])c1cn(-c2ncc(-c3cc(C#N)ccn3)cn2)c2cc(C(=O)N3CCOCC3)ccc12 (centres unmarked) [Example 181, 2-(2-(3-(Methylsulfinyl)-6-(morpholine-4-carbonyl)-1H-indol-1-yl)pyrimidin-5-yl)isonicotinonitrile] | 96 |
| C[S+]([O-])c1cn(-c2ncc(-c3cc(F)ccn3)cn2)c2cc(C(=O)N3CCOCC3)ccc12 (centres unmarked) [Example 182, (1-(5-(4-Fluoropyridin-2-yl)pyrimidin-2-yl)-3-(methylsulfinyl)-1H-indol-6-yl)(morpholino)methanone] | 95 |
| C[S+]([O-])c1cn(-c2ncc(-c3cccc(C#N)n3)cn2)c2cc(C(=O)N3CCOCC3)ccc12 (centres unmarked) [Example 183, 6-(2-(3-(Methylsulfinyl)-6-(morpholine-4-carbonyl)-1H-indol-1-yl)pyrimidin-5-yl)picolinonitrile] | 60 |
| C[S+]([O-])c1cn(-c2ncc(-c3cccc(F)n3)cn2)c2cc(C(=O)N3CCOCC3)ccc12 (centres unmarked) [Example 185, (1-(5-(6-Fluoropyridin-2-yl)pyrimidin-2-yl)-3-(methylsulfinyl)-1H-indol-6-yl)(morpholino)methanone] | 97 |
| C[S+]([O-])c1cn(-c2ncc(-c3ccccc3)cn2)c2cc(C(=O)N3CC[C@@H](N)C3)ccc12 (stereo partly drawn) [Example 223, ((R)-3-Aminopyrrolidin-1-yl)(3-(methylsulfinyl)-1-(5-phenylpyrimidin-2-yl)-1H-indol-6-yl)methanone] | 89 |
| Cc1cccc(-c2cnc(-n3cc([S+](C)[O-])c4ccc(C(=O)N5CC[C@@H](N)C5)cc43)nc2)c1 (stereo partly drawn) [Example 224, ((R)-3-Aminopyrrolidin-1-yl)(3-(methylsulfinyl)-1-(5-(m-tolyl)pyrimidin-2-yl)-1H-indol-6-yl)methanone] | 102 |
| C[S+]([O-])c1cn(-c2ncc(-c3cc(C#N)ccc3F)cn2)c2cc(C(=O)N3CC[C@@H](N)C3)ccc12 (stereo partly drawn) [Example 225, 3-(2-(6-((R)-3-Aminopyrrolidine-1-carbonyl)-3-(methylsulfinyl)-1H-indol-1-yl)pyrimidin-5-yl)-4-fluorobenzonitrile] | 92 |
| COc1ccc(F)c(-c2cnc(-n3cc([S+](C)[O-])c4ccc(C(=O)N5CC[C@@H](N)C5)cc43)nc2)c1 (stereo partly drawn) [Example 226, ((R)-3-Aminopyrrolidin-1-yl)(1-(5-(2-fluoro-5-methoxyphenyl)pyrimidin-2-yl)-3-(methylsulfinyl)-1H-indol-6-yl)methanone] | 99 |
| Cc1ccc(F)c(-c2cnc(-n3cc([S+](C)[O-])c4ccc(C(=O)N5CC[C@@H](N)C5)cc43)nc2)c1 (stereo partly drawn) [Example 227, ((R)-3-Aminopyrrolidin-1-yl)(1-(5-(2-fluoro-5-methylphenyl)pyrimidin-2-yl)-3-(methylsulfinyl)-1H-indol-6-yl)methanone] | 108 |
| CS(=O)(=O)c1cn(-c2ncc(-c3ccccc3)cn2)c2cc(C(=O)N3CC[C@@H](N)C3)ccc12 [Example 228, (R)-(3-Aminopyrrolidin-1-yl)(3-(methylsulfonyl)-1-(5-phenylpyrimidin-2-yl)-1H-indol-6-yl)methanone] | 104 |
| CS(=O)(=O)c1cn(-c2ncc(-c3cc(C#N)ccc3F)cn2)c2cc(C(=O)N3CC[C@@H](N)C3)ccc12 [Example 229, (R)-3-(2-(6-(3-Aminopyrrolidine-1-carbonyl)-3-(methylsulfonyl)-1H-indol-1-yl)pyrimidin-5-yl)-4-fluorobenzonitrile] | 106 |
| COc1ccc(F)c(-c2cnc(-n3cc(S(C)(=O)=O)c4ccc(C(=O)N5CC[C@@H](N)C5)cc43)nc2)c1 [Example 230, (R)-(3-Aminopyrrolidin-1-yl)(1-(5-(2-fluoro-5-methoxyphenyl)pyrimidin-2-yl)-3-(methylsulfonyl)-1H-indol-6-yl)methanone] | 110 |
| Cc1ccc(F)c(-c2cnc(-n3cc(S(C)(=O)=O)c4ccc(C(=O)N5CC[C@@H](N)C5)cc43)nc2)c1 [Example 231, (R)-(3-Aminopyrrolidin-1-yl)(1-(5-(2-fluoro-5-methylphenyl)pyrimidin-2-yl)-3-(methylsulfonyl)-1H-indol-6-yl)methanone] | 121 |
| C[S+]([O-])c1cn(-c2ncc(-c3ccccc3)cn2)c2cc(C(=O)N3C[C@H]4C[C@@H]3CN4)ccc12 (stereo partly drawn) [Example 232, (1R,4R)-2,5-Diazabicyclo[2.2.1]heptan-2-yl(3-(methylsulfinyl)-1-(5-phenylpyrimidin-2-yl)-1H-indol-6-yl)methanone] | 57 |

Reference: patent US9315490B2, “2,5-substituted pyrimidines” (Grünenthal GmbH, priority 2014, dated 2016)
